In patent US20240245631A1, “METHODS OF TREATING LENNOX-GASTAUT SYNDROME USING FENFLURAMINE” (ZOGENIX INTERNATIONAL LIMITED, priority 2015, published 2024):

Assays:
[1] = test system: children with refractory epilepsy; conditions: 0.5 to 1 mg/kg/day; cited from earlier work
[2] = test system: child suffering pattern sensitivity-induced seizures; conditions: single case, resistant to anticonvulsive treatment; cited from earlier work
[3] = test system: self-induced photosensitive seizures; conditions: four cases; cited from earlier work
Lennox-Gastaut patients = experiment: Open-label Phase 2 add-on study of low-dose fenfluramine in Lennox-Gastaut patients; format: in vivo, human
Description: The efficacy of fenfluramine as an add-on treatments in Lennox-Gastaut patients is studied in a Phase 2 Clinical Trial. The study protocol is described and preliminary results are presented here.
An open-label, non-placebo controlled add-on study was designed to assess the efficacy and safety of low-dose add-on fenfluramine across a range of fenfluramine doses (0.2, 0.4, 0.8 mg/kg/day, to a maximum of 30 mg/day). The trial was conducted over a 20 week period, with responders eligible for follow-on treatment, with follow-up appointments at three month intervals.
Patients were recruited from childhood epilepsy clinics in Leuven and Antwerp, Belgium, and selected for inclusion in the study according to criteria comprising a combination of age, physical and psychological characteristics, and resistance to treatment with conventional therapies. Details of selection criteria are provided below.
Study duration is 20 weeks, ending at week 20 after inclusion of 20 patients, i.e., 20 weeks following the enrollment of the 20th patient. Patients who respond to treatment are enrolled in a follow-on study and assessed on an ongoing basis.
Patients are examined during six clinical visits (V1 through V6) scheduled at four week intervals, ending with V6 at week 20. […] At each visit, endpoints and safety criteria are assessed, and dosages adjusted as necessary.
Add-on treatment is begun at V2. […] Endpoints and safety criteria are assessed (seizure counting, adverse effects, pregnancy testing, and quality of life indicators (CGI, sleep scale)). […]
At each of V3-V5, endpoints and safety criteria are again assessed. […]
At V6, endpoints and safety criteria are again assessed. […]
Fenfluramine: Oral fenfluramine solution (2.5 mg/ml or 5 mg/ml) is provided by Zogenix Pharma. […] Patient compliance is assessed by control of oral solution quantity at each visit and collection of seizure diary with notification of drug intake. […]
Safety assessment: Treatment safety is assessed using a combination of physical examination, blood testing, cardiac evaluation, and adverse event reporting. […]

SMILES: CCNC(C)Cc1cccc(C(F)(F)F)c1 (stereo not drawn) [fenfluramine, 3-trifluoromethyl-N-ethylamphetamine]
- number of seizures experienced by the patients [1]: reduction in the number of seizures
- self-induced seizures [2]: successfully terminated these self-induced seizures
- response of self-induced photosensitive seizures [3]: responded to treatment with fenfluramine
- total seizure frequency (Lennox-Gastaut patients; 3 patients receiving 0.2 mg/kg/day, add-on, interim results): significant decreases in total seizure frequency
- serious side effects (Lennox-Gastaut patients; 9 patients receiving add-on fenfluramine, interim results): None of the 9 patients receiving fenfluramine reported serious side effects
- seizure frequency (overall interim conclusion) (Lennox-Gastaut patients; low-dose add-on treatment, early interim data): effective in reducing seizure frequency
